Assays:
[1] = dogs, male vs female; cited from earlier work
[2] = Discoloration of olanzapine in contact with excipients; assay type: physicochemical; conditions: contacted with certain excipients including powder blends; exacerbated by ambient air, elevated temperatures, moist environments

Cc1cc2c(s1)Nc1ccccc1N=C2N1CCN(C)CC1 [olanzapine, 2-methyl-4-(4-methyl-1-piperazinyl)-10H-thieno[2,3-b][1,5]benzodiazepine]
difference in the pharmacokinetic of olanzapine between the sexes [1]: no difference
discoloration (stability) [2]: undergoes undesirable discoloration

Reference: US6169084A, “2-methyl-thieno-benzodiazepine formulation” (Eli Lilly and Company, priority 1998, dated 2001)
